Data published in paper PMC5772355 (Scientific Reports, 2018).

Columns and labels:
[1] = molecular target: T1, xCT (SLC7A11), system xc− (Mus musculus, UniProt Q9WTR6); assay: inhibition of L-[…]cystine uptake in xCT-overexpressing MEF; format: cell-based
T1 construct: coding region of murine xCT, stably overexpressed in MEF; with 4F2 heavy chain (SLC3A2)
T1 sequence (Q9WTR6 1-502): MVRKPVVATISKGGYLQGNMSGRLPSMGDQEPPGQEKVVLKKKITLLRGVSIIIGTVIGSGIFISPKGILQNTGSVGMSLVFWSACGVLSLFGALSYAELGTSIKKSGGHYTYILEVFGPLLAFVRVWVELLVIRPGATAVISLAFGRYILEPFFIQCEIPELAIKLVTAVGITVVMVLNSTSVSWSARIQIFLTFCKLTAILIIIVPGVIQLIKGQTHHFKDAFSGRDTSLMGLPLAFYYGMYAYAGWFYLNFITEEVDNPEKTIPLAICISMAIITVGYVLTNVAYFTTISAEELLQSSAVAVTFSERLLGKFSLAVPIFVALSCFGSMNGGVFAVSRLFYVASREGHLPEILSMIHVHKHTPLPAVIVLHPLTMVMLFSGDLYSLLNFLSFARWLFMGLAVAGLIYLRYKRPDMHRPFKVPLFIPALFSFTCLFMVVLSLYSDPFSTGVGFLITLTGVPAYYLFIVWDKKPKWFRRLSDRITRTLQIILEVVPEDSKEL
T1 sequence (P10852 1-526 partner): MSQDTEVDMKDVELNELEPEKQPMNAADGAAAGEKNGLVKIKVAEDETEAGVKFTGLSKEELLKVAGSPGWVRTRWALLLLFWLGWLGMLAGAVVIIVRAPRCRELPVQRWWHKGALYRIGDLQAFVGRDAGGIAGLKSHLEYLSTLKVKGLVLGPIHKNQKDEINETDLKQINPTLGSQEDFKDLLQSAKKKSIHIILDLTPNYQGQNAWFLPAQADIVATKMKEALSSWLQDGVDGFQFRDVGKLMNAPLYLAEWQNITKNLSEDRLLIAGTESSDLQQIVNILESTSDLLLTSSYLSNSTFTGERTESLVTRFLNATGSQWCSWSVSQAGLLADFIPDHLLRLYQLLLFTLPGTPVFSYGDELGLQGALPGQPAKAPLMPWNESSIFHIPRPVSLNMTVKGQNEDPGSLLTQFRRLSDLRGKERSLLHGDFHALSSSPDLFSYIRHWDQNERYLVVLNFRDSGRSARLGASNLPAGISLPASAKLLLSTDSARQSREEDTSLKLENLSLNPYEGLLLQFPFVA

[2] = molecular target: T1, xCT (SLC7A11), system xc−; assay: as above; format: cell-based; remark: listed apart in the source

Row | Structure (SMILES) | inhibition at 100 µM [1] [%] | IC50 [2] [µM]
1 | N[C@@H](CCC(=O)O)C(=O)O [Glu, L-glutamate] | ~50 | –
2 | N[C@@H](Cn1oc(=O)[nH]c1=O)C(=O)O [QA, quisqualic acid] | – | 15.4
3 | O=C(O)c1cc(/N=N/c2ccc(S(=O)(=O)Nc3ccccn3)cc2)ccc1O [SAS, sulfasalazine] | – | 26.1
4 | CCOc1ccccc1-n1c(C(C)N2CCN(C(=O)COc3ccc(Cl)cc3)CC2)nc2ccccc2c1=O (stereo not shown) [erastin] | – | 1.4
